# Data: patent US20250314640A1, “SYSTEMS AND METHODS FOR HIGH THROUGHPUT SINGLE MOLECULE TRACKING IN LIVING CELLS” (EIKON THERAPEUTICS, INC., priority 2022, published 2025)
# Entries after “also recorded” stand apart in the source; their conditions may differ. Like-named read-outs stand apart in the source and are kept apart here.
# Assays:
# Estrogen Receptor (ER) = biological target: T1, Estrogen Receptor (ER) (Homo sapiens, UniProt P03372); assay: htSMT of HaloTag-ER in U2OS cells (fbound, Dfree; bioactive screen and dose titration); format: cell-based; settings: for change in fbound of ER: follow-up experiments after the screen (FIG. 12B, 14A, 16), 100 nM in FIG. 14A
# T1 construct: expressed in transfected cells
# T1 sequence (P03372 1-595): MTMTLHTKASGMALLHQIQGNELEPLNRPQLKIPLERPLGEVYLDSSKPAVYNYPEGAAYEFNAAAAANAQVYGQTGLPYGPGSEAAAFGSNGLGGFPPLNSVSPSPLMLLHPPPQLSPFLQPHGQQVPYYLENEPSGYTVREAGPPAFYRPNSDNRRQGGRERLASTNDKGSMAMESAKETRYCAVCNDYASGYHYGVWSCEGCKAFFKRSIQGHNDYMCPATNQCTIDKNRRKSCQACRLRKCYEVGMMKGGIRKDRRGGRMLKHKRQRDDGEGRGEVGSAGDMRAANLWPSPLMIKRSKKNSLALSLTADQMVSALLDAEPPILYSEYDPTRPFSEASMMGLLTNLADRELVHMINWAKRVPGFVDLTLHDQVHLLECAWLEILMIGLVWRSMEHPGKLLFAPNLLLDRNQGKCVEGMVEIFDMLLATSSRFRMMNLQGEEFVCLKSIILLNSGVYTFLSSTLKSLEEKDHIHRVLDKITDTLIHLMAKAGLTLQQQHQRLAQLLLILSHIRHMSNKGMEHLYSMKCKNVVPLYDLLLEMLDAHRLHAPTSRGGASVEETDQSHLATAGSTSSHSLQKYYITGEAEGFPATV
# [1] = biological target: T2, glucocorticoid receptor (GR) (Homo sapiens, UniProt P04150); assay: htSMT of Halo-GR in U2OS cells; format: cell-based; settings: 1 μM antagonist, singly or co-administered with the cognate agonist; FIG. 34D
# T2 construct: Because U2OS cells express GR endogenously, HaloTag was inserted right before the stop codon of endogenous NR3C1; endogenous in cells; host or cells: U2OS, CRISPR/Cas9 knock-in at the endogenous NR3C1 locus
# T2 sequence (P04150 1-777): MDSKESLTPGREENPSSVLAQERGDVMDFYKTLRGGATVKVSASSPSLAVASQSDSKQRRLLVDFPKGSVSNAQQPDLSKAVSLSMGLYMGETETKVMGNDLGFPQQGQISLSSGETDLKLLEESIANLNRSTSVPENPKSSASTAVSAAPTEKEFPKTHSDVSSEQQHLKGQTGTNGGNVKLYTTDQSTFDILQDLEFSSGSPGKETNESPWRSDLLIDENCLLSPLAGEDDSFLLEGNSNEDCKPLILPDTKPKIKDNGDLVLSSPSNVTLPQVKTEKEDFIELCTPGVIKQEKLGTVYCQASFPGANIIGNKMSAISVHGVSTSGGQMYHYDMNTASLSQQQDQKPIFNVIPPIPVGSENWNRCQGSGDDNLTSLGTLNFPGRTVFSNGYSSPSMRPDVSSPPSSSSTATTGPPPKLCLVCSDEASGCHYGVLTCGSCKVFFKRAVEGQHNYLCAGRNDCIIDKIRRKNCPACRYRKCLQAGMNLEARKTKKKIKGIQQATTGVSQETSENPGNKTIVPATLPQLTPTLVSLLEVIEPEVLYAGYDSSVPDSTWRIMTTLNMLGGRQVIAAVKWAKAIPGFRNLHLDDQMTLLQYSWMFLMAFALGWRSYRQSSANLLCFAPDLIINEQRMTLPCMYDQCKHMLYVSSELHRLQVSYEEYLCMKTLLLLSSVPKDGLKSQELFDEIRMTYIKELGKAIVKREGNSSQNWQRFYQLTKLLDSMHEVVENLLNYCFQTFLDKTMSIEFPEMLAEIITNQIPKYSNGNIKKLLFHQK
# Description: Thermo Fisher) at 500 μg/mL, then clonally isolated. […] Between three and six clones were subsequently tested using SMT conditions for response to a control compound, and the most homogenous clones were subsequently expanded for further testing. Unless otherwise specified, all experiments are with a single, clonally isolated cell line. Because U2OS cells express GR endogenously, HaloTag was inserted right before the stop codon of endogenous NR3C1 via homology-directed repair using CRISPR/Cas9. The HaloTag knock-in was validated by imaging using HTL-JF646 staining and through DNA sequencing.
# Where appropriate, compounds were serially diluted in an Echo Qualified 384-Well Low Dead Volume Source Microplate (0018544, Beckman Coulter) to generate dose-titration source material.
# androgen receptor (AR) = androgen receptor (AR) (Homo sapiens, UniProt P10275)
# androgen receptor (AR), sequence (P10275 whole entry): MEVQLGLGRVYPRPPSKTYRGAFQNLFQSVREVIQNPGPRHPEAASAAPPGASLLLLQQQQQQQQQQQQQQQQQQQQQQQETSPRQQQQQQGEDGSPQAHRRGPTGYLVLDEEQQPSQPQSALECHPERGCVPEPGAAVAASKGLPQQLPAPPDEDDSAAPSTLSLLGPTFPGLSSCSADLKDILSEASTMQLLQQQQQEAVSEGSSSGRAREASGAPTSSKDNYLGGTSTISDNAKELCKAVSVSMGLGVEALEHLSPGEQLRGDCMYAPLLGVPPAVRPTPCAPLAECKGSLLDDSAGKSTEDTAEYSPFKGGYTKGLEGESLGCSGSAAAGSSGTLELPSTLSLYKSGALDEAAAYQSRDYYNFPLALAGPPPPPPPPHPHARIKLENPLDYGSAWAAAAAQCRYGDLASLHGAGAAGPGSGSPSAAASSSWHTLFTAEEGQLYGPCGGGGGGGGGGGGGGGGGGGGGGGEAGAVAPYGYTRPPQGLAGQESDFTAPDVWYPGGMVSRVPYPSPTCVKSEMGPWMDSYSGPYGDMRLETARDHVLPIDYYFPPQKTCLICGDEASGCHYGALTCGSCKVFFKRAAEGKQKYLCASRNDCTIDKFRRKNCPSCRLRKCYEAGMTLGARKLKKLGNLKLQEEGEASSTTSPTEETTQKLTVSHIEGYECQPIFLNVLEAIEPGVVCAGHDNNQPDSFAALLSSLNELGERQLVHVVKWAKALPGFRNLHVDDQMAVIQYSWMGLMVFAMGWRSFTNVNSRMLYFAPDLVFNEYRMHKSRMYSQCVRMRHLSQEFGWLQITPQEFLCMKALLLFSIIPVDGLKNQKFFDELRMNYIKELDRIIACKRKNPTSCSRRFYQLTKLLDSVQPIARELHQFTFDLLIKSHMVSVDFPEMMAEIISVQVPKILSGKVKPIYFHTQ
# ER [2] = biological target: T3, ER (Homo sapiens, UniProt P03372); assay: kinetic SMT (kSMT) of ER after compound addition; format: cell-based; parameters: expressed in transfected cells; settings: for t½ of increase in fbound: 100 nM; for time course of the overall effect on fbound: up to four-hour window
# T3 sequence (P03372 1-595): T1 sequence (P03372 1-595)
# ER [3] = biological target: T3, ER; assay: western blot of ER after fulvestrant treatment; format: cell-based; parameters: host or cells: Halo-ER U2OS (transfected fusion), or MCF7 / T47d (endogenous ER); settings: fulvestrant 24 hours prior to lysis; MCF7, T47d, U2OS Halo-ER; FIG. 20A
# ER [4] = biological target: T3, ER; assay: residence time imaging of ER (track length survival); format: cell-based; parameters: expressed in transfected cells; settings: 100 nM HSP90 inhibition, FIG. 16E; normalized to DMSO
molecule,measurement,setting,value
4-hydroxytamoxifen,change in fbound of ER in bioactive screen,Estrogen Receptor (ER),significantly increased fbound
same,maximal increase in ER fbound,Estrogen Receptor (ER),lower maximal increases in fbound
CN(C)c1ccc(C(c2ccc(N(C)C)cc2)c2cc([N+](=O)[O-])ccc2Cl)cc1 [AL082D06],change in GR chromatin binding (fbound),[1],decrease in chromatin binding
CC(O)c1cc(C(=O)N[C@@H](C)Cn2ccc(-c3ccc(C#N)c(Cl)c3)n2)[nH]n1 (stereo partly drawn) [Darolutamide],change in AR chromatin binding (fbound),androgen receptor (AR),decrease in chromatin binding
COc1cccc(-c2cc(F)ccc2[C@H]2Cc3nc(N)nc(C)c3C(=O)N2)n1 [HSP990],change in fbound of ER,Estrogen Receptor (ER),increase in fbound
same,t½ of increase in fbound,ER [2],17.5 min
same,time course of the overall effect on fbound,ER [2],reached a plateau after an hour
CC(C)C[C@H](NC(=O)[C@H](Cc1ccccc1)NC(=O)c1cnccn1)B(O)O [bortezomib],time course of the overall effect on fbound,ER [2],slowly increasing over the four-hour measurement window
CC(C)C[C@H](NC(=O)[C@H](CCc1ccccc1)NC(=O)CN1CCOCC1)C(=O)N[C@@H](Cc1ccccc1)C(=O)N[C@@H](CC(C)C)C(=O)[C@@]1(C)CO1 [carfilzomib],time course of the overall effect on fbound,ER [2],slowly increasing over the four-hour measurement window
C[C@]12CC[C@@H]3c4ccc(O)cc4C[C@@H](CCCCCCCCC[S+]([O-])CCCC(F)(F)C(F)(F)F)[C@H]3[C@@H]1CC[C@@H]2O (stereo partly drawn) [fulvestrant],change in fbound of ER in bioactive screen,"Estrogen Receptor (ER); 1 μM compound versus DMSO, 5,067 molecules, two replicates",increase in fbound; also recorded: significantly increased fbound
same,degradation of ER,ER [3],leads to the degradation of ER
CC(C)c1cc(-c2n[nH]c(=O)n2-c2ccc3c(ccn3C)c2)c(O)cc1O [ganetespib],change in fbound of ER,Estrogen Receptor (ER),increase in fbound
same,t½ of increase in fbound,ER [2],19.3 min
same,time course of the overall effect on fbound,ER [2],reached a plateau after an hour
same,decrease in the total number long binding events,ER [4],four
